# Test results as given in ChEMBL document CHEMBL6078657, “Thiazolidinedione-based structure modification of ergosterol peroxide provides thiazolidinedione-conjugated derivatives as potent agents against breast cancer cells through a PI3K/AKT/mTOR pathway” (Bioorg Med Chem, 2025).
# Activity calls are given as the source filed them. No cut-off for these calls is given here.
# How the values were obtained:
# MCF7 [1] = assay: Induction of cell cycle arrest in human MCF7 cells assessed as accumulation of cells at S phase at 6 uM measured after 48 hrs by PI staining based flow cytometry analysis (reference value: 24.67%); format: functional
# MCF7 [2] = assay: Induction of cell cycle arrest in human MCF7 cells assessed as accumulation of cells at G2/M phase at 6 uM measured after 48 hrs by PI staining based flow cytometry analysis (reference value: 16.91%); format: functional
# MCF7 [3] = assay: Antiproliferative activity against human MCF7 cells assessed as cell viability measured after 48 hrs incubation by MTT assay; format: functional, cell-based; conditions: MCF7, 48 h
# MCF7 [4] = assay: Induction of apoptosis in human MCF7 cells assessed as early apoptotic cells at 6 uM measured after 48 hrs incubation by Annexin V-FITC/PI double staining assay (reference value: 5.73%); format: functional
# A549 = assay: Antiproliferative activity against human A549 cells assessed as cell viability measured after 48 hrs incubation by MTT assay; format: functional, cell-based; conditions: A549, 48 h
# MCF7 [5] = assay: Induction of apoptosis in human MCF7 cells assessed as necrotic cells at 6 uM measured after 48 hrs incubation by Annexin V-FITC/PI double staining assay (reference value: 0.77%); format: functional
# MCF7 [6] = assay: Induction of apoptosis in human MCF7 cells assessed as viable cells at 6 uM measured after 48 hrs incubation by Annexin V-FITC/PI double staining assay (reference value: 92.8%); format: functional; conditions: read-out: Activity
# MCF7 [7] = assay: Induction of apoptosis in human MCF7 cells assessed as late apoptotic cells at 6 uM measured after 48 hrs incubation by Annexin V-FITC/PI double staining assay (reference value: 0.68%); format: functional
# MCF7 [8] = assay: Induction of apoptosis in human MCF7 cells assessed as decrease in mitochondrial membrane potential by measuring increase in JC-1 monomer (green fluorescence) at 6 uM incubated for 48 hrs by JC-1 staining based flow cytometry analysis (reference value: 2.96%); format: functional; set-up: scale not given: the % may be the effect or the level left
# HepG2 = assay: Antiproliferative activity against human HepG2 cells assessed as cell viability measured after 48 hrs incubation by MTT assay; format: functional, cell-based; conditions: HepG2, 48 h
# MCF7 [9] = assay: Induction of cell cycle arrest in human MCF7 cells assessed as accumulation of cells at G0/G1 phase at 6 uM measured after 48 hrs by PI staining based flow cytometry analysis (reference value: 58.42%); format: functional
# 4T1 [10] = assay: In vivo antitumor activity against mouse 4T1 cells transfected in BALB/c mouse assessed as tumor growth inhibition at 30 mg/kg, ip daily for 14 consecutive days relative to control; format: functional; conditions: 4T1, 336 h, time 14 day, read-out: TGI
# [11] = Toxicity in healthy BALB/c mouse assessed as pathological changes in heart at 20 mg/kg, ip daily for 14 consecutive days by HE staining based assay; format: organism-based; conditions: in vivo, 336 h, time 14 day
# 4T1 [12] = assay: In vivo antitumor activity against mouse 4T1 cells transfected in BALB/c mouse assessed as tumor growth inhibition at 15 mg/kg, ip daily for 14 consecutive days relative to control; format: functional; conditions: time 14.0 day
SMILES,Activity (MCF7 [1]) [%],Activity (MCF7 [2]) [%],IC50 (MCF7 [3]) [µM],Activity (MCF7 [4]) [%],IC50 (A549) [µM],Activity (MCF7 [5]) [%],viability at 6 µM (MCF7 [6]) [%],Activity (MCF7 [7]) [%],Activity (MCF7 [8]) [%],IC50 (HepG2) [µM],Activity (MCF7 [9]) [%],inhibition in vivo at 30 mg/kg (4T1 [10]) [%],Activity [11],TGI (4T1 [12])
CC(C)[C@@H](C)/C=C/[C@@H](C)[C@H]1CC[C@@H]2[C@]1(C)CC[C@H]1[C@]23C=C[C@]2(C[C@@H](O)CC[C@]12C)OO3 [ERGOSTEROL PEROXIDE],18.74,19.66,19.4,8.97,15,0.47,90.1,0.45,11.3,18.1,61.61,–,–,–
O=c1[nH]cc(F)c(=O)[nH]1 [FLUOROURACIL],–,–,–,–,4.27,–,–,–,–,10.7,–,86.1,Non-toxic,Active
